Results from the supplement of paper PMC10307832.

Key:
Assay in all cases: relative viability (nuclei count vs DMSO), 5 days (fraction); higher = more cells survive
[1] = compound: C(C(=O)C(=O)O)Br [Bromopyruvate] + CC(C)C[C@H](NC(=O)[C@H](Cc1ccccc1)NC(=O)c1cnccn1)B(O)O [Bortezomib] (partner 0.002 µM)
Outline: (§1)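 Nuclei were stained with Hoechst during a one-step fixation (final 0.05% Triton X-100, 1% formaldehyde, 1 ug/ml Hoechst) carried out 5 days after dosing, then counted on 4× images. The cells, lung cancer lines in 1536-well plates, had been dosed by pin tool the day after seeding with one drug alone or a fixed anchor-drug dose plus five library-drug doses (not always all listed) in √10 steps. Relative viability is the nuclei count in treated wells divided by that in vehicle wells, and each value is the median of duplicate plates.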

[2] = compound: C(C(=O)C(=O)O)Br [Bromopyruvate] + C[C@]1(O)C[C@@H](c2nc(-c3ccc4ccc(-c5ccccc5)nc4c3)c3c(N)nccn32)C1 [Linsitinib] (partner 1 µM)
Outline: as §1

[3] = compound: CC(O)(CS(=O)(=O)c1ccc(F)cc1)C(=O)Nc1ccc(C#N)c(C(F)(F)F)c1 [Bicalutamide] + CC(=O)c1c(C)c2cnc(Nc3ccc(N4CCNCC4)cn3)nc2n(C2CCCC2)c1=O [Palbociclib] (partner 0.5 µM)
Outline: as §1

[4] = compound: CC(O)(CS(=O)(=O)c1ccc(F)cc1)C(=O)Nc1ccc(C#N)c(C(F)(F)F)c1 [Bicalutamide] + Cc1nc(Nc2ncc(C(=O)Nc3c(C)cccc3Cl)s2)cc(N2CCN(CCO)CC2)n1 [Dasatinib] (partner 0.075 µM)
Outline: as §1

| Cell Line | relative viability ([1]; first compound 1 µM) | relative viability ([1]; first compound 3.162 µM) | relative viability ([1]; first compound 10 µM) | relative viability ([1]; first compound 31.62 µM) | relative viability ([1]; first compound 100 µM) | relative viability ([2]; first compound 1 µM) | relative viability ([2]; first compound 3.162 µM) | relative viability ([2]; first compound 10 µM) | relative viability ([2]; first compound 31.62 µM) | relative viability ([2]; first compound 100 µM) | relative viability ([3]; first compound 0.08 µM) | relative viability ([3]; first compound 0.253 µM) | relative viability ([3]; first compound 0.8 µM) | relative viability ([3]; first compound 2.53 µM) | relative viability ([4]; first compound 0.08 µM) | relative viability ([4]; first compound 0.253 µM) | relative viability ([4]; first compound 0.8 µM) | relative viability ([4]; first compound 2.53 µM) |
| --- | --- | --- | --- | --- | --- | --- | --- | --- | --- | --- | --- | --- | --- | --- | --- | --- | --- | --- |
| 201T | 1.11 | 1.08 | 1.11 | 1.1 | 1.03 | 1.05 | 1.07 | 1.06 | 1.02 | 1.11 | 0.379 | 0.351 | 0.386 | 0.365 | 0.575 | 0.566 | 0.581 | 0.57 |
| A549 | – | – | – | – | – | – | 0.607 | 0.754 | 0.687 | 0.696 | – | – | – | – | – | – | – | – |
| A-427 | 0.999 | 1.02 | 0.931 | 1.05 | 1.06 | 1.05 | 1.05 | 1.03 | 1.15 | 1.14 | 0.547 | 0.54 | 0.56 | 0.526 | 0.643 | 0.631 | 0.791 | 0.607 |
| ABC-1 | 0.342 | 0.31 | – | 0.347 | 0.332 | 0.767 | 1.05 | – | 0.693 | 0.753 | 0.698 | 0.474 | 0.808 | 0.601 | 0.658 | 0.476 | 0.725 | 0.475 |
| Calu-6 | 1.09 | 1.05 | 1.07 | 0.993 | 0.903 | 0.889 | 1.04 | 1.09 | 0.926 | 0.958 | – | – | – | – | – | – | – | – |
| ChaGo-K-1 | 1.08 | 1.02 | 1.01 | 1.07 | 0.953 | – | – | – | – | – | 0.933 | 0.849 | 1.04 | 0.961 | 0.613 | 0.557 | 0.561 | 0.542 |
| EBC-1 | 0.527 | 0.67 | 0.56 | 0.574 | 0.511 | 0.78 | 0.963 | 0.994 | 0.905 | 0.93 | – | – | – | – | – | – | – | – |
| HCC-44 | 0.914 | 0.897 | 0.872 | 0.918 | 0.962 | 0.612 | 0.662 | 0.729 | 0.753 | 0.713 | 0.953 | 1.03 | 1.04 | 0.944 | – | – | – | – |
| IA-LM | 0.872 | 0.835 | 0.908 | 0.835 | 0.64 | 0.534 | 0.576 | 0.675 | 0.674 | 0.674 | – | – | – | – | – | – | – | – |
| LK-2 | – | – | – | – | – | 0.474 | 0.674 | 0.541 | 0.509 | 0.524 | 0.665 | 0.511 | 0.783 | 0.63 | 0.283 | 0.224 | 0.261 | 0.293 |
| NCI-H358 | – | – | – | – | – | 0.748 | 0.77 | 0.81 | 0.62 | 0.903 | 0.147 | 0.141 | 0.14 | 0.125 | 0.154 | 0.14 | 0.16 | 0.145 |
| NCI-H522 | – | – | – | – | – | – | – | – | – | – | 0.949 | 1.11 | 1.11 | 0.894 | 0.815 | 0.722 | 0.901 | 0.87 |
| NCI-H596 | – | 1.14 | 1.01 | 0.915 | 1.03 | 0.998 | 0.991 | 1.18 | 1.03 | 1.19 | – | – | – | – | 0.576 | 0.599 | 0.798 | 0.598 |
| NCI-H1299 | 0.973 | 1.02 | 1.06 | 0.956 | 1 | 0.994 | 1.01 | 1.04 | 1.02 | 0.968 | – | – | – | – | – | – | – | – |
| NCI-H1395 | – | – | – | – | – | 1.36 | 1.29 | 1.09 | 1.2 | 1.17 | 0.645 | 0.624 | 0.639 | 0.568 | 0.406 | 0.404 | 0.414 | 0.353 |
| NCI-H1563 | 0.859 | 0.925 | 0.868 | 0.789 | 0.943 | 1.19 | 1.42 | 1.16 | 1.23 | 1.07 | – | – | – | – | 0.449 | 0.456 | 0.512 | 0.409 |
| NCI-H1623 | – | – | – | – | – | – | – | – | – | – | – | – | – | – | – | 0.524 | 0.562 | 0.54 |
| NCI-H1648 | – | – | – | – | – | – | – | – | – | – | – | – | 0.317 | 0.254 | – | – | – | – |
| NCI-H1650 | 0.196 | 0.194 | 0.209 | 0.255 | 0.19 | – | – | – | – | – | 0.435 | 0.314 | 0.464 | 0.355 | 0.34 | 0.245 | 0.381 | 0.301 |
| NCI-H1703 | 0.369 | 0.244 | 0.366 | 0.315 | 0.543 | 0.602 | 1.08 | 0.709 | 0.678 | 0.655 | – | – | – | – | – | – | – | – |
| NCI-H1793 | – | – | – | – | – | 0.706 | 0.8 | 1.16 | 0.844 | 1.06 | 0.265 | – | 0.423 | 0.382 | 0.369 | 0.349 | 0.486 | 0.377 |
| NCI-H1944 | – | – | – | – | – | 1.27 | 1.31 | 1.19 | 1.12 | 1.22 | 0.335 | 0.299 | 0.354 | 0.323 | 0.233 | 0.203 | 0.216 | 0.208 |
| NCI-H2170 | – | – | – | – | – | – | – | – | – | – | 0.378 | 0.34 | 0.438 | 0.397 | 0.532 | 0.497 | 0.584 | 0.563 |
| NCI-H2342 | – | – | – | – | – | – | – | – | – | – | 0.526 | 0.519 | 0.726 | 0.523 | 0.324 | 0.276 | 0.299 | 0.306 |
| SK-MES-1 | – | – | – | – | – | 1.07 | 1.05 | 1.08 | 0.941 | 1.06 | 0.319 | 0.3 | 0.3 | 0.281 | 0.343 | 0.358 | 0.427 | 0.301 |
| SW 900 | – | – | – | – | – | – | – | – | – | – | 0.602 | 0.596 | 0.529 | 0.511 | 0.856 | 0.445 | 0.658 | 0.509 |
